pIC50: −log10 of the molar value. ≈ marks a conversion by molar mass, not a printed value.
Columns and labels:
[1] = system: Chromobacterium violaceum; assay: Inhibition of N-acyl-homoserinlactone-related quorum sensing system in Chromobacterium violaceum ATCC 12472 assessed as diameter of violacein pigment inhibition after 48 hrs
HepG2 = assay: Cytotoxicity against human HepG2 cells assessed as decrease in cell viability after 48 hrs by MTT assay; type: functional, cell-based; conditions: HepG2, 48 h
Candida albicans = assay: Antimicrobial activity against Candida albicans after 48 hrs by two-fold serial dilution method; type: functional
HeLa = assay: Cytotoxicity against human HeLa cells assessed as decrease in cell viability after 48 hrs by MTT assay; type: functional, cell-based
Pseudomonas aeruginosa = assay: Antimicrobial activity against Pseudomonas aeruginosa PAO1 after 24 hrs by two-fold serial dilution method; type: functional; conditions: PAO1, 24 h
Aspergillus fumigatus = assay: Antimicrobial activity against Aspergillus fumigatus 293 after 48 hrs by two-fold serial dilution method; type: functional; conditions: Af293, 48 h
MCF7 = assay: Cytotoxicity against human MCF7 cells assessed as decrease in cell viability after 48 hrs by MTT assay; type: functional, cell-based; conditions: MCF7, 48 h
Aspergillus flavus = assay: Antimicrobial activity against Aspergillus flavus 3375 after 48 hrs by two-fold serial dilution method; type: functional; conditions: Aspergillus flavus, 3375, 48 h
Mus musculus [2] = assay: Toxicity in Swiss albino mouse implanted with mouse EAC cells assessed as effect on RBC count at 0.5 mg/mouse administered for 9 days (reference value: 3.69 10^6/mm3); type: organism-based; conditions: in vivo, 216 h
Ehrlich [3] = assay: Antitumor activity against mouse EAC cells implanted in Swiss albino mouse assessed as effect on viable tumor cell count at 0.5 mg/mouse administered for 9 days by trypan blue staining based method (reference value: 83.20 10^6/ml); type: functional
Mus musculus [4] = assay: Toxicity in Swiss albino mouse implanted with mouse EAC cells assessed as effect on WBC count at 0.5 mg/mouse administered for 9 days (reference value: 23.96 10^3/mm3); type: organism-based; conditions: in vivo, 216 h
WISH = assay: Cytotoxicity against human WISH cells assessed as decrease in cell viability after 48 hrs by MTT assay; type: cell-based
[5] = Displacement of methyl green from DNA (unknown origin) incubated in dark for 24 hrs
Ehrlich [6] = assay: Antitumor activity against mouse EAC cells implanted in Swiss albino mouse assessed as mean survival time at 0.5 mg/mouse administered for 9 days (reference value: 14.5 day); type: functional
WI-38 = assay: Cytotoxicity against human W138 cells assessed as decrease in cell viability after 48 hrs by MTT assay; type: cell-based; conditions: WI-38, 48 h
Mus musculus [7] = assay: Toxicity in Swiss albino mouse implanted with mouse EAC cells assessed as effect on hemoglobin content at 0.5 mg/mouse administered for 9 days (reference value: 8.15 g/dl); type: organism-based; conditions: in vivo, 216 h
Ehrlich [8] = assay: Antitumor activity against mouse EAC cells implanted in Swiss albino mouse assessed as effect on tumor volume at 0.5 mg/mouse administered for 9 days (reference value: 9.85 mL); type: functional
Ehrlich [9] = assay: Antitumor activity against mouse EAC cells implanted in Swiss albino mouse assessed as increase in life span at 0.5 mg/mouse administered for 9 days relative to control; type: functional
Escherichia coli = assay: Antimicrobial activity against Escherichia coli ATCC 12435 after 24 hrs by two-fold serial dilution method; type: functional; conditions: ATCC 12435, 24 h
Bacillus cereus = assay: Antimicrobial activity against Bacillus cereus UW 85 after 24 hrs by two-fold serial dilution method; type: functional; conditions: UW 85, 24 h
Staphylococcus aureus = assay: Antimicrobial activity against Staphylococcus aureus ATCC 29213 after 24 hrs by two-fold serial dilution method; type: functional; conditions: ATCC 29213, 24 h

Structure (SMILES) | inhibition zone (IZ) [1] [mm] | pIC50 (HepG2) | MIC (Candida albicans) [µM] | pIC50 (HeLa) | MIC (Pseudomonas aeruginosa) [µM] | MIC (Aspergillus fumigatus) [µM] | pIC50 (MCF7) | MIC (Aspergillus flavus) [µM] | Activity (Mus musculus [2]) [×10⁶ /mm3] | Activity (Ehrlich [3]) [×10⁶ /ml] | Activity (Mus musculus [4]) [×10³ /mm3] | pIC50 (WISH) | pIC50 [5] | MST (Ehrlich [6]) [days] | Activity (Mus musculus [7]) [g/dL] | Activity (Ehrlich [8]) [mL] | ILS (Ehrlich [9]) [%] | MIC (Escherichia coli) [µM] | MIC (Bacillus cereus) [µM] | MIC (Staphylococcus aureus) [µM] | also measured
Oc1cc(O)c2c(c1)O[C@H](c1ccc(O)c(O)c1)[C@@H](O)C2 | 2 | – | – | – | – | – | – | – | – | – | – | – | – | – | – | – | – | – | – | – | –
Cc1n[nH]c2c1C(c1ccc(N(C)C)cc1)C(C(=O)n1ncc(C#N)c1N)=C(N)N2 (stereo not given) | < 2 | 4.18 | 4960 (≈ 2000 µg/mL) | 4.22 | 620 (≈ 250 µg/mL) | 2480 (≈ 1000 µg/mL) | 4.20 | 2480 (≈ 1000 µg/mL) | – | – | – | – | – | – | – | – | – | – | – | – | –
Cc1n[nH]c2c1C(c1ccc(N(C)C)cc1)C(C(N)=O)=C(N)N2 (stereo not given) | < 2 | 5.28 | 6400 (≈ 2000 µg/mL) | 5.24 | 3200 (≈ 1000 µg/mL) | 3200 (≈ 1000 µg/mL) | 5.34 | 6400 (≈ 2000 µg/mL) | 5.94 | 21.46 | 8.2 | 4.12 | 4.55 | 61 | 14 | 1.35 | 238.9 | – | – | – | pIC50 (WI-38): 4.16
Cc1n[nH]c2c1C(c1ccc(N(C)C)cc1)C=C(N)N2 (stereo not given) | < 2 | 4.69 | 3710 (≈ 1000 µg/mL) | 4.56 | 3710 (≈ 1000 µg/mL) | 3710 (≈ 1000 µg/mL) | 4.95 | 3710 (≈ 1000 µg/mL) | 4.53 | 51.17 | 12.69 | 4.67 | 4.25 | 31 | 10.95 | 4.8 | 72.2 | 7430 (≈ 2000 µg/mL) | 3710 (≈ 1000 µg/mL) | 3710 (≈ 1000 µg/mL) | pIC50 (WI-38): 4.74
Cc1n[nH]c2c1C(c1ccc(N(C)C)cc1)C(C(=O)N/N=C1/C(=O)Nc3ccccc31)=C(N)N2 (stereo not given) | < 2 | 4.24 | 2190 (≈ 1000 µg/mL) | 4.28 | 548 (≈ 250 µg/mL) | 2190 (≈ 1000 µg/mL) | 4.23 | 2190 (≈ 1000 µg/mL) | – | – | – | – | – | – | – | – | – | 4380 (≈ 2000 µg/mL) | 2190 (≈ 1000 µg/mL) | 2190 (≈ 1000 µg/mL) | –
COc1cccc2c1C(=O)c1c(O)c3c(c(O)c1C2=O)C[C@@](O)(C(=O)CO)C[C@@H]3O[C@H]1C[C@H](N)[C@H](O)[C@H](C)O1 [DOXORUBICIN] | – | – | – | – | – | – | – | – | 5.32 | 16.36 | 8.96 | 5.09 | 4.50 | 62 | 12.75 | 1 | 244.4 | – | – | – | –
Cc1n[nH]c2c1C(c1ccc(N(C)C)cc1)C(C(=O)NNc1cc([N+](=O)[O-])ccc1[N+](=O)[O-])=C(N)N2 (stereo not given) | 2.5 | 5.06 | 1010 (≈ 500 µg/mL) | 5.07 | 507 (≈ 250 µg/mL) | 1010 (≈ 500 µg/mL) | 4.89 | 1010 (≈ 500 µg/mL) | 5.24 | 34.73 | 10.32 | 4.29 | 4.47 | 42 | 13.1 | 2.8 | 133.3 | 1010 (≈ 500 µg/mL) | 253 (≈ 125 µg/mL) | 507 (≈ 250 µg/mL) | pIC50 (WI-38): 4.26
Cc1n[nH]c2c1C(c1ccc(N(C)C)cc1)C(C(=O)NNC(N)=S)=C(N)N2 (stereo not given) | < 2 | 5.20 | 1290 (≈ 500 µg/mL) | 5.20 | 647 (≈ 250 µg/mL) | 1290 (≈ 500 µg/mL) | 5.28 | 1290 (≈ 500 µg/mL) | 5.59 | 30.94 | 8.52 | 4.31 | 4.44 | 46 | 13.4 | 2.25 | 155.5 | 1290 (≈ 500 µg/mL) | 647 (≈ 250 µg/mL) | 647 (≈ 250 µg/mL) | pIC50 (WI-38): 4.27
Cc1n[nH]c2c1C(c1ccc(N(C)C)cc1)C(C(=O)N/N=C/c1ccc(Cl)cc1)=C(N)N2 (stereo not given) | < 2 | 4.40 | 1110 (≈ 500 µg/mL) | 4.50 | 556 (≈ 250 µg/mL) | 2220 (≈ 1000 µg/mL) | 4.60 | 2220 (≈ 1000 µg/mL) | – | – | – | – | 4.17 | – | – | – | – | 556 (≈ 250 µg/mL) | 556 (≈ 250 µg/mL) | 556 (≈ 250 µg/mL) | –
Cc1n[nH]c2c1C(c1ccc(N(C)C)cc1)C(C(=O)O)=C(N)N2 (stereo not given) | 11 | 4.40 | 798 (≈ 250 µg/mL) | 4.47 | 199 (≈ 62.5 µg/mL) | 399 (≈ 125 µg/mL) | 4.66 | 399 (≈ 125 µg/mL) | – | – | – | – | 4.38 | – | – | – | – | 199 (≈ 62.5 µg/mL) | 99.7 (≈ 31.3 µg/mL) | 99.7 (≈ 31.3 µg/mL) | –
CC1(C)S[C@@H]2[C@H](NC(=O)[C@H](N)c3ccccc3)C(=O)N2[C@H]1C(=O)O [AMPICILLIN] | – | – | – | – | – | – | – | – | – | – | – | – | – | – | – | – | – | 44.7 (≈ 15.6 µg/mL) | 1430 (≈ 500 µg/mL) | 716 (≈ 250 µg/mL) | –
OC(Cn1cncn1)(Cn1cncn1)c1ccc(F)cc1F [FLUCONAZOLE] | – | – | 6530 (≈ 2000 µg/mL) | – | – | – | – | – | – | – | – | – | – | – | – | – | – | – | – | – | –
Cc1n[nH]c2c1C(c1ccc(N(C)C)cc1)C(C(=O)NN)=C(N)N2 (stereo not given) | 5 | 4.18 | 1530 (≈ 500 µg/mL) | 4.29 | 764 (≈ 250 µg/mL) | 1530 (≈ 500 µg/mL) | 4.37 | 1530 (≈ 500 µg/mL) | – | – | – | – | 4.17 | – | – | – | – | 1530 (≈ 500 µg/mL) | 764 (≈ 250 µg/mL) | 764 (≈ 250 µg/mL) | –

— ChEMBL document CHEMBL4270515, “New pyrazolopyridine analogs: Synthesis, antimicrobial, antiquorum-sensing and antitumor screening” (Eur J Med Chem, 2018)
